Assay results reported in article PMC9758846, “Dinuclear and mononuclear metal(II) polypyridyl complexes against drug-sensitive and drug-resistant Plasmodium falciparum and their mode of action” (Malaria Journal, 2022).
Where “and” joins values, the source holds several entries; their conditions need not be identical. Identical values can stand only once.

Legend:
Pf5202 [1] = test: JC-1 mitochondrial membrane potential study; assay type: cell-based, Plasmodium falciparum; conditions: JC-1 red/green fluorescence ratio
Description: (§1) Mitochondrial membrane potential was investigated using a BD™ MitoScreen Flow Cytometry Mitochondrial Membrane Potential Detection JC-1 kit. In brief, parasitized red blood cells were treated with test compounds at desired concentrations for 12 and 48 h at 37 °C. After incubation, packed cells were stained as per manufacturer’s instructions. Dissipation in Δψm was measured by calculating the ratio between the red and green fluorescence.

Pf3D7 [2] = test: JC-1 mitochondrial membrane potential study; assay type: cell-based, Plasmodium falciparum; conditions: JC-1 red/green fluorescence ratio
Description: as §1

[3] = tested on: B+ blood red blood cells (RBC); test: In vitro haemolytic assay; assay type: cell-based, human; conditions: 72 h, B+ blood
Description: Fresh B+ blood was washed with RPMI1640 medium containing of 30 µg/mL gentamicin (Gibco) and centrifuged at 1000 xg for 10 min three times. The percentage of haemolysis was determined spectroscopically using 5% haematocrit containing test compound at increasing concentration and incubated for 72 h at 37 °C [19, 20]. Untreated blood acted as negative control while blood treated with sterile distilled water acted as positive control (for 100% haemolysis).

Pf5202 [4] = test: Intracellular ROS level using DCFH-DA; assay type: cell-based, Plasmodium falciparum
Description: (§2) After incubation, packed cells were washed with phosphate buffer saline (PBS) solution. […] The data was expressed as fold change between amount of ROS produced by treated P. falciparum against untreated P. falciparum. Normalization was done with the percentage of parasite viability obtained at each condition. Hydrogen peroxide was used as positive control.

Pf3D7 [5] = test: Intracellular ROS level using DCFH-DA; assay type: cell-based, Plasmodium falciparum
Description: as §2

Pf3D7 [6] = test: Nuclear morphology study by Hoechst staining; assay type: cell-based, Plasmodium falciparum; conditions: Pf3D7-infected RBC; 72 h; 0.2-25 µM
Description: Detections of haemolytic and apoptotic morphological features were examined on Giemsa-stained thin blood smear. The parasite was then visualised with oil immersion (100 × magnification) using upright brightfield microscope. Another thin blood smear was prepared, fixed with methanol, stained in 10 µg/mL of Hoechst 33,258 stain, and kept in the dark for 30 min at room temperature. A cover slip was applied, and the nuclear morphological examination was then visualized with at 100 × magnification with oil by fluorescence microscope using DAPI filter.
The morphological features of apoptosis of P. falciparum can be indicated by chromosome condensation and fragmentation of the P. falciparum nuclei in the non-nuclear RBC cells. The condensed chromosomes would be stained bright blue. The pRBC cells were treated with (1) and (3) respectively for 72 h, and the resultant pRBC were visualized and photographed at 100 × magnification with oil immersion. Typical images were enlarged to look at single cells and are depicted in Fig. 9 for Pf3D7 and Fig. 10 for Pf5202. […] The nuclei of P. falciparum trophozoites in pRBC were observed under brightfield microscope as dots, and they were stained brighter blue which increased in fluorescence intensity with increasing concentration of copper(II) complexes of (1) and (3) from 0.2, 1, 5 to 25 µM compared to the untreated pRBC.

[7] = PNDA assay of •OH radicals from reaction with H2O2; conditions: 30 µM compound with excess H2O2
Description: A previously reported spectrometric assay using PNDA was used to quantify the amount of reactive oxygen species (ROS), viz. •OH radicals, produced by the reaction of metal(II) complexes with hydrogen peroxide in borate buffer at pH 7.5 [24–26]. The percentage of PNDA bleaching and the concentration of •OH produced were determined.

[8] = tested on: Plasmodium falciparum IPC5202 (Pf5202); test: In vitro anti-malarial activity using SYBR Green I nucleic acid dye; assay type: cell-based; conditions: 72 h incubation; read-out: IC50 of Pf5202
Description: (§3) The drug-sensitive strain of P. falciparum 3D7 (Pf3D7) was obtained from the Department of Science, Monash University, Malaysia and cultured as previously described. The artemisinin-resistant strain of P. falciparum IPC5202 (Pf5202) was obtained from BEI Resources and cultured as mentioned in the product sheet. Both strains were maintained in sealed flask at 37 °C in a humidified atmosphere of 5% O2, 5% CO2 and 90% N2. All buffer stock solutions for biological assays were autoclaved at 121 °C for 15 min.
(§4) Previously reported anti-malarial assay was used with slight modification using 1% parasitaemia (ring-stage) and 5% haematocrit treated with test compounds at increasing concentration and incubated for 72 h at 37 °C [21–23]. After the incubation, the assay was terminated by freeze/thaw cycle (− 80 °C overnight before thawing for 2 h) before the addition of lysis buffer containing SYBR Green I dye into each well and mixed thoroughly using the belly dancer for 30 min in the dark. Chloroquine diphosphate salt and artemisinin were used as standard drugs. The fluorescence signal was quantified at 485 nm excitation wavelength and 528 nm emission wavelength. IC50 values of each test compound was determined from a dose response curve by non-linear regression analysis.

[9] = tested on: Plasmodium falciparum 3D7 (Pf3D7); test: as above; assay type: cell-based; conditions: 72 h incubation; read-out: IC50 of Pf3D7
Description: as §3, §4

## O.O=[N+]([O-])[O-].O=[N+]([O-])[O-].[Cu+2].c1cnc2c(c1)ccc1cccnc12.c1cnc2c(c1)ccc1cccnc12 [Complex 1, [Cu(phen)2](NO3)2·H2O]
Pf5202 [1]; 12 h, 1 µM
  Mitochondrial membrane potential (Δψm): 18.9 ± 2.8
Pf5202 [1]; 12 h, 5 µM
  Mitochondrial membrane potential (Δψm): 17.5 ± 3.5
Pf5202 [1]; 12 h, 25 µM
  Mitochondrial membrane potential (Δψm): 1.1 ± 0.6
Pf5202 [1]; 48 h, 1 µM
  Mitochondrial membrane potential (Δψm): 10.4 ± 3.1
Pf5202 [1]; 48 h, 5 µM
  Mitochondrial membrane potential (Δψm): 6.0 ± 1.8
Pf5202 [1]; 48 h, 25 µM
  Mitochondrial membrane potential (Δψm): 1.2 ± 0.1
Pf3D7 [2]; 12 h, 1 µM
  Mitochondrial membrane potential (Δψm): 17.2 ± 12.8
Pf3D7 [2]; 12 h, 5 µM
  Mitochondrial membrane potential (Δψm): 29.7 ± 12.1
Pf3D7 [2]; 12 h, 25 µM
  Mitochondrial membrane potential (Δψm): 1.9 ± 1.1
Pf3D7 [2]; 48 h, 1 µM
  Mitochondrial membrane potential (Δψm): 41.1 ± 5.1
Pf3D7 [2]; 48 h, 5 µM
  Mitochondrial membrane potential (Δψm): 43.6 ± 15.0
Pf3D7 [2]; 48 h, 25 µM
  Mitochondrial membrane potential (Δψm): 0.5 ± 0.3
[3]; 1 µM
  Percentage of haemolysis (haemolytic index, HI): 4%
[3]; 5 µM
  Percentage of haemolysis (haemolytic index, HI): 80%
[3]; 25 µM
  Percentage of haemolysis (haemolytic index, HI): 43%
Pf5202 [4]; 24 h, 0.2 µM
  fold change in ROS: 1.04 ± 0.03 fold
Pf5202 [4]; 24 h, 1.0 µM
  fold change in ROS: 0.86 ± 0.04 fold
Pf5202 [4]; 24 h, 5.0 µM
  fold change in ROS: 0.59 ± 0.02 fold
Pf5202 [4]; 24 h, 25.0 µM
  fold change in ROS: 0.04 ± 0.03 fold
Pf5202 [4]; 48 h, 0.2 µM
  fold change in ROS: 0.32 ± 0.02 fold
Pf5202 [4]; 48 h, 1.0 µM
  fold change in ROS: 0.33 ± 0.05 fold
Pf5202 [4]; 48 h, 5.0 µM
  fold change in ROS: 0.72 ± 0.12 fold
Pf5202 [4]; 48 h, 25.0 µM
  fold change in ROS: 0.52 ± 0.26 fold
Pf5202 [4]; 72 h, 0.2 µM
  fold change in ROS: 1.09 ± 0.07 fold
Pf5202 [4]; 72 h, 1.0 µM
  fold change in ROS: 1.33 ± 0.41 fold
Pf5202 [4]; 72 h, 5.0 µM
  fold change in ROS: 1.69 ± 0.22 fold
Pf3D7 [5]; 24 h, 0.2 µM
  fold change in ROS: 1.44 ± 0.10 fold
Pf3D7 [5]; 24 h, 1.0 µM
  fold change in ROS: 1.54 ± 0.26 fold
Pf3D7 [5]; 24 h, 5.0 µM
  fold change in ROS: 2.28 ± 0.25 fold
Pf3D7 [5]; 24 h, 25.0 µM
  fold change in ROS: 7.59 ± 0.46 fold
Pf3D7 [5]; 48 h, 0.2 µM
  fold change in ROS: 2.45 ± 0.41 fold
Pf3D7 [5]; 48 h, 1.0 µM
  fold change in ROS: 3.20 ± 0.19 fold
Pf3D7 [5]; 48 h, 5.0 µM
  fold change in ROS: 4.54 ± 0.52 fold
Pf3D7 [5]; 48 h, 25.0 µM
  fold change in ROS: 6.83 ± 0.83 fold
Pf3D7 [5]; 72 h, 0.2 µM
  fold change in ROS: 0.00 ± 0.10 fold
Pf3D7 [6]
  Type of cell death by nuclear morphology (Hoechst): underwent apoptosis
[7]; 2 h
  Concentration of •OH radical: 32.20 ± 2.93 µM
[7]; 4 h
  Concentration of •OH radical: 34.36 ± 2.62 µM
[7]; 24 h
  Concentration of •OH radical: 35.43 ± 1.22 µM
[7]; 48 h
  Concentration of •OH radical: 32.19 ± 0.52 µM
[7]; 72 h
  Concentration of •OH radical: 28.96 ± 0.38 µM
[8]
  IC50: 17900 ± 2730 nM
[9]
  IC50: 3510 ± 470 nM

## [Cu(phen)(NO3)(H2O)-4,4′-bipy-Cu(phen)(NO3)(H2O)](NO3)2 [Complex 3]
Pf5202 [1]; 12 h, 1 µM
  Mitochondrial membrane potential (Δψm): 17.5 ± 2.2
Pf5202 [1]; 12 h, 5 µM
  Mitochondrial membrane potential (Δψm): 16.6 ± 4.6
Pf5202 [1]; 12 h, 25 µM
  Mitochondrial membrane potential (Δψm): 0.5 ± 0.1
Pf5202 [1]; 48 h, 1 µM
  Mitochondrial membrane potential (Δψm): 19.2 ± 8.4
Pf5202 [1]; 48 h, 5 µM
  Mitochondrial membrane potential (Δψm): 0.6 ± 0.1
Pf5202 [1]; 48 h, 25 µM
  Mitochondrial membrane potential (Δψm): 0.1 ± 0.01
Pf3D7 [2]; 12 h, 1 µM
  Mitochondrial membrane potential (Δψm): 24.2 ± 1.6
Pf3D7 [2]; 12 h, 5 µM
  Mitochondrial membrane potential (Δψm): 49.3 ± 23.8
Pf3D7 [2]; 12 h, 25 µM
  Mitochondrial membrane potential (Δψm): 0.4 ± 0.2
Pf3D7 [2]; 48 h, 1 µM
  Mitochondrial membrane potential (Δψm): 45.0 ± 26.4
Pf3D7 [2]; 48 h, 5 µM
  Mitochondrial membrane potential (Δψm): 4.7 ± 2.6
Pf3D7 [2]; 48 h, 25 µM
  Mitochondrial membrane potential (Δψm): 0.1 ± 0.04
[3]; 1 µM
  Percentage of haemolysis (haemolytic index, HI): 35%
[3]; 5 µM
  Percentage of haemolysis (haemolytic index, HI): 96%
[3]; 25 µM
  Percentage of haemolysis (haemolytic index, HI): 36%
Pf5202 [4]; 24 h, 0.2 µM
  fold change in ROS: 0.04 ± 0.33 fold
Pf5202 [4]; 48 h, 0.2 µM
  fold change in ROS: 0.52 ± 0.60 fold
Pf5202 [4]; 48 h, 1.0 µM
  fold change in ROS: 0.66 ± 0.50 fold
Pf5202 [4]; 48 h, 5.0 µM
  fold change in ROS: 2.53 ± 0.85 fold
Pf5202 [4]; 48 h, 25.0 µM
  fold change in ROS: 3.39 ± 0.66 fold
Pf5202 [4]; 72 h, 5.0 µM
  fold change in ROS: 8.43 ± 0.60 fold
Pf3D7 [5]; 24 h, 0.2 µM
  fold change in ROS: 1.76 ± 0.47 fold
Pf3D7 [5]; 24 h, 1.0 µM
  fold change in ROS: 1.13 ± 0.56 fold
Pf3D7 [5]; 24 h, 5.0 µM
  fold change in ROS: 2.30 ± 0.86 fold
Pf3D7 [5]; 24 h, 25.0 µM
  fold change in ROS: 5.36 ± 0.30 fold
Pf3D7 [5]; 48 h, 0.2 µM
  fold change in ROS: 1.20 ± 0.64 fold
Pf3D7 [5]; 48 h, 1.0 µM
  fold change in ROS: 1.28 ± 0.31 fold
Pf3D7 [5]; 48 h, 5.0 µM
  fold change in ROS: 3.80 ± 1.18 fold
Pf3D7 [5]; 48 h, 25.0 µM
  fold change in ROS: 5.46 ± 0.25 fold
Pf3D7 [5]; 72 h, 0.2 µM
  fold change in ROS: 1.49 ± 0.10 fold
Pf3D7 [5]; 72 h, 1.0 µM
  fold change in ROS: 1.77 ± 0.24 fold
Pf3D7 [5]; 72 h, 5.0 µM
  fold change in ROS: 1.68 ± 0.41 fold
Pf3D7 [5]; 72 h, 25.0 µM
  fold change in ROS: 2.74 ± 0.24 fold
Pf3D7 [6]
  Type of cell death by nuclear morphology (Hoechst): underwent apoptosis
[7]; 2 h
  Concentration of •OH radical: 21.13 ± 0.41 µM
[7]; 4 h
  Concentration of •OH radical: 22.16 ± 0.36 µM
[7]; 24 h
  Concentration of •OH radical: 23.51 ± 1.09 µM
[7]; 48 h
  Concentration of •OH radical: 21.29 ± 1.67 µM
[7]; 72 h
  Concentration of •OH radical: 18.89 ± 1.45 µM
[8]
  IC50: 2200 nM and 2210 nM
[9]
  IC50: 900 ± 120 nM
